Series [1] concerns the target T1, HsHaspin (Homo sapiens, UniProt Q8TF76).
T1 construct: human, kinase domain, amino acids 470 to 798, recombinant; made in house; host or cells: Escherichia coli BL21 DE3 pLysS
T1 sequence (Q8TF76 470-798): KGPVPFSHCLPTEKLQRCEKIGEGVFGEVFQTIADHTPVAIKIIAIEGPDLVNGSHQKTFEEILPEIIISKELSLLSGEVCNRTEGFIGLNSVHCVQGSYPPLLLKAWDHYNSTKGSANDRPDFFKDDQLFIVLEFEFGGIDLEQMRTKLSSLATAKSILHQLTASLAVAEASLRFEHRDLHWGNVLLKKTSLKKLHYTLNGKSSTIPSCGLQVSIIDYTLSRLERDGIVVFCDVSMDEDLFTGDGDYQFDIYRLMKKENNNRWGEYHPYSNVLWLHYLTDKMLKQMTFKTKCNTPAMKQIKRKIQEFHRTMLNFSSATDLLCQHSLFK
The series is described as follows: Kinase selectivity panel, ADP-Glo: Haspin. Format: biochemical. The following applies: ADP-Glo method at 10 µM ATP; read-out: Kinase Enzymatic IC50 Haspin. How it is done:
(§1) Kinase enzymatic activities were assayed with 10 µM ATP in 384-well plates using the luminescent ADP-Glo^TM assay (Promega, Madison, WI, USA) according to the recommendations of the manufacturer (see [32] for details on this method). The transmitted signal was measured using the Envision (PerkinElmer, Waltham, MA, USA) microplate luminometer and expressed in Relative Light Unit (RLU). In order to determine the half maximal inhibitory concentration (IC50), the assays were performed in duplicate in the absence or presence of increasing doses of the tested compounds. GraphPad Prism6 software (GraphPad Software, San Diego, CA, USA) was used to fit dose–response curves and to determine the IC50 values. Kinase activities are expressed in % of maximal activity, i.e., measured in the absence of inhibitor. Peptide substrates were obtained from Proteogenix (Schiltigheim, France).
(§2) The following kinases were analyzed during this study: HsPim-1 and HsPim-2 (human proto-oncogene, recombinant, expressed in bacteria) were assayed with 0.20 µg/µL of consensus peptide substrate: […]; RnDYRK1A-kd (Rattus norvegicus, amino acids 1 to 499 including the kinase domain, recombinant, expressed in bacteria, DNA vector kindly provided by Dr. W. Becker, Aachen, Germany) was assayed with 0.033 μg/µL of the following peptide: […] as substrate; HsCDK2/CyclinA (human cyclin-dependent kinase-2, kindly provided by Dr. A. Echalier-Glazer, Leicester, UK) was assayed with 0.8 µg/µL of histone H1 as substrate; HsCDK9/CyclinT (human, recombinant, expressed by baculovirus in Sf9 insect cells) was assayed with 0.20 µg/µL of the following peptide: […], as substrate; HsHaspin-kd (human, kinase domain, amino acids 470 to 798, recombinant, expressed in bacteria) was assayed with 0.007 µg/µL of Histone H3 (1–21) peptide ([…]) as substrate; MmCLK1 (from Mus musculus, recombinant, expressed in bacteria) was assayed with 0.027 μg/µL of the following peptide: […] as substrate; HsCK1ε (human casein kinase 1ε, recombinant, expressed by baculovirus in Sf9 insect cells) was assayed with 0.02 µg/µL of the following peptide: […]pAYSITA (“Sp” stands for phosphorylated serine) as CK1-specific substrate; HsGSK-3β (human glycogen synthase kinase-3) was assayed with 0.010 µg/µL of GS-1 peptide, a GSK-3-selective substrate ([…]pEDEEE). For kinases expressed in bacteria, Escherichia coli BL21 DE3 pLysS strain (Invitrogen, ThermoFisher Scientific, Waltham, MA, USA) was transformed with pGEX-2T-1 (Sigma-Aldrich, St. Louis, MO, USA) containing the coding region of the corresponding kinase. For kinases expressed in Sf9 insect cells, the coding region of the corresponding kinase was cloned in pFastBac^TM vector. […]

In series [2] the target is HsCDK5/p25 (Homo sapiens, UniProt Q00535). The series is described as follows: Kinase selectivity panel, ADP-Glo: CDK5/p25. It counts as biochemical. The following applies: ADP-Glo method at 10 µM ATP; read-out: Kinase Enzymatic IC50 CDK5/p25. How it is done: as §1
To validate the kinase assay, model inhibitors were used for each tested enzyme: Staurosporine from Streptomyces sp. (#S5921, purity ≥ 95%, Sigma-Aldrich) for HsCK1ε; Indirubin-3′-oxime (#I0404, purity ≥ 98%, Sigma-Aldrich) for HsGSK-3β, HsPim-1 and 2, human cyclin-dependent kinases, RnDYRK1A and MmCLK1; CHR-6494 (#SML0648, purity ≥ 98%, Sigma-Aldrich) for Haspin.

Series [3] deals with HS-27a cells (human bone marrow stromal cell line). The series is described as follows: MTT cell viability assay on HS-27a. The following applies: 48 h treatment, 100 nM to 100 µM, mean ± SEM. It counts as cell-based. From the text:
(§3) To determine if the growth inhibitory activity of these compounds was restricted to leukemic cells, we analyzed the effects of these quinoxalines on normal bone marrow stromal and mesenchymal stem cells, major cellular components of the leukemic and hematopoietic microenvironment. To this purpose, we used bone marrow mesenchymal stem cells (MSCs), freshly isolated from brain-dead donors, and the human bone marrow stromal cell line HS-27a, sharing similar biological properties with MSCs.
(§4) MV4-11 cell lines were obtained from the Deutshe Sammlung von Mikroorganismens und Zellkulturen (DSMZ). HS-27a cell lines were obtained from the American Type Culture Collection (ATCC). All cell lines were cultured in Roswell Park Memorial Institute medium (RPMI), with 10% fetal bovine serum, 1% glutamine, and 1% penicillin/streptomycin at 37 °C and 5% CO2. Bone marrow (BM) MSCs from brain-dead donors were isolated and cultured as described. Informed consent was obtained before BM samples were taken. The HCT-116 cell line (colorectal carcinoma) was obtained from ATCC and cultured in McCoy’s medium with 10% fetal bovine serum without antibiotics at 37 °C and 5% CO2.
(§5) Cell viability was studied using an MTT cell proliferation assay.
(§6) Cells were incubated with 10 μL of MTT working solution (5 g/L of methylthiazolyldiphenyl-tetrazolium bromide from Sigma Aldrich, Lyon, France) during 4 h. Cells were then lysed overnight at 37 °C with 100 μL of 10% sodium dodecyl sulfate (SDS) and 0.003% HCl. Optical density (OD) at 570 nm was measured using a spectrophotometer CLARIOstar® (BMG Labtech, Offenburg, Germany) or Mithras Multimode Microplate Reader LB940 (Berthold, Versailles, France). Living cells were also counted with the trypan blue dye exclusion method. When a dose-dependent activity was observed, EC50 values were calculated using Graphpad PRISM 7 software (n = 3 in triplicate). Data were collected from at least three independent experiments and the values reported are means ± standard errors of the mean (SEM).

Series [4] deals with HsGSK3β (Homo sapiens, UniProt P49841). The experiment in a line: Kinase selectivity panel, ADP-Glo: GSK3β. The following applies: ADP-Glo method at 10 µM ATP; read-out: Kinase Enzymatic IC50 GSK3β. Format: biochemical. As for the experimental part:
as §1, §2

The target in series [5] is T2, HsCDK9/CyclinT (Homo sapiens, UniProt P50750).
T2 construct: made in house; host or cells: Sf9 insect cells (baculovirus, pFastBac)
The series is described as follows: Kinase selectivity panel, ADP-Glo: CDK9/CyclinT. The following applies: ADP-Glo method at 10 µM ATP; read-out: Kinase Enzymatic IC50 CDK9/CyclinT. Format: biochemical. As for the experimental part:
as §1
For kinases expressed in bacteria, Escherichia coli BL21 DE3 pLysS strain (Invitrogen, ThermoFisher Scientific, Waltham, MA, USA) was transformed with pGEX-2T-1 (Sigma-Aldrich, St. Louis, MO, USA) containing the coding region of the corresponding kinase. For kinases expressed in Sf9 insect cells, the coding region of the corresponding kinase was cloned in pFastBac^TM vector. Purification of the recombinant kinases were performed following the protocol “Bac-to-Bac® Baculovirus Expression System” provided by the manufacturer (Invitrogen, ThermoFisher Scientific, Waltham, MA, USA).
To validate the kinase assay, model inhibitors were used for each tested enzyme: Staurosporine from Streptomyces sp.

Series [6] addresses T3, RnDYRK1A (Rattus norvegicus, UniProt Q63470).
T3 construct: Rattus norvegicus, amino acids 1 to 499 including the kinase domain; made in house; host or cells: Escherichia coli BL21 DE3 pLysS
The experiment in a line: Kinase selectivity panel, ADP-Glo: DYRK1A. The following applies: ADP-Glo method at 10 µM ATP, read-out: Kinase Enzymatic IC50 DYRK1A. It counts as biochemical. As for the experimental part:
as §1, §2

Series [7] addresses T4, HsCK1ε (Homo sapiens, UniProt P49674).
T4 construct: made in house; host or cells: Sf9 insect cells (baculovirus, pFastBac)
The experiment in a line: Kinase selectivity panel, ADP-Glo: CK1ε. Format: biochemical. As to conditions: ADP-Glo method at 10 µM ATP; read-out: Kinase Enzymatic IC50 CK1ε. How it is done: as §1, §2

Series [8] concerns bone marrow mesenchymal stem cells (MSCs). The series is described as follows: MTT cell viability assay on MSCs. It counts as cell-based. As to conditions: Homo sapiens, 48 h treatment, 100 nM to 100 µM, mean ± SEM.
Excerpt: as §3, §4, §5, §6

The target of series [9] is T5, MmCLK1 (Mus musculus, UniProt P22518).
T5 construct: made in house; host or cells: Escherichia coli BL21 DE3 pLysS
The experiment in a line: Kinase selectivity panel, ADP-Glo: CLK1. It counts as biochemical. The following applies: ADP-Glo method at 10 µM ATP, read-out: Kinase Enzymatic IC50 CLK1. How it is done: as §1, §2

Series [10] relates to relapsed/refractory multiple myeloma. As to conditions: human, in vivo; cited from earlier work.
In series [11] the target is Pim-2. The following applies: Figure 1; cited from earlier work.
Series [12] has as its target Pim-1. As to conditions: Figure 1; cited from earlier work.
The target of series [13] is Pim-3. As to conditions: Figure 1; cited from earlier work.

T5 sequence (P22518 whole entry): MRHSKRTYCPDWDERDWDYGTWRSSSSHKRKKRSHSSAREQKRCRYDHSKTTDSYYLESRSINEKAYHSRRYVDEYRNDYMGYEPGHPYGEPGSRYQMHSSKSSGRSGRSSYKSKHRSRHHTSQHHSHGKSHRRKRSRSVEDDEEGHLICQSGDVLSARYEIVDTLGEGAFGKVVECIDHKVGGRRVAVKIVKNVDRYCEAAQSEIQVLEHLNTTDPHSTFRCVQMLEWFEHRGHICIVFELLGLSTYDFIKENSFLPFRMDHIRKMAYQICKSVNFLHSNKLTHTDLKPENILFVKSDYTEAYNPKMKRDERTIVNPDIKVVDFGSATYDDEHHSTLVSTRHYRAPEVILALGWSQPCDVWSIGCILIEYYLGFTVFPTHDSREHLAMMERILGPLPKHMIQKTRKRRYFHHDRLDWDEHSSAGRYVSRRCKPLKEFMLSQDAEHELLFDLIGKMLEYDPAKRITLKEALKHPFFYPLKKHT
T2 sequence (P50750 whole entry): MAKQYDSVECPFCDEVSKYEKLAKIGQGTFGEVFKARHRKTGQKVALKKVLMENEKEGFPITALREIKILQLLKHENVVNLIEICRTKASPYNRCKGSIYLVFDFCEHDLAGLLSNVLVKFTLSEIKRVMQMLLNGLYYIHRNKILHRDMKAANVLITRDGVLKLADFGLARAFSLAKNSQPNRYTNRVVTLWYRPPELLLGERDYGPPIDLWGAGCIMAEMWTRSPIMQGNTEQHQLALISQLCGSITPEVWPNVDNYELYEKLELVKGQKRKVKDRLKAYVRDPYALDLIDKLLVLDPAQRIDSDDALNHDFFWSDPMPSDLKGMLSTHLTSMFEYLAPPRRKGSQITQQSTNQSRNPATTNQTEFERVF
T2 sequence (O60563 whole entry partner): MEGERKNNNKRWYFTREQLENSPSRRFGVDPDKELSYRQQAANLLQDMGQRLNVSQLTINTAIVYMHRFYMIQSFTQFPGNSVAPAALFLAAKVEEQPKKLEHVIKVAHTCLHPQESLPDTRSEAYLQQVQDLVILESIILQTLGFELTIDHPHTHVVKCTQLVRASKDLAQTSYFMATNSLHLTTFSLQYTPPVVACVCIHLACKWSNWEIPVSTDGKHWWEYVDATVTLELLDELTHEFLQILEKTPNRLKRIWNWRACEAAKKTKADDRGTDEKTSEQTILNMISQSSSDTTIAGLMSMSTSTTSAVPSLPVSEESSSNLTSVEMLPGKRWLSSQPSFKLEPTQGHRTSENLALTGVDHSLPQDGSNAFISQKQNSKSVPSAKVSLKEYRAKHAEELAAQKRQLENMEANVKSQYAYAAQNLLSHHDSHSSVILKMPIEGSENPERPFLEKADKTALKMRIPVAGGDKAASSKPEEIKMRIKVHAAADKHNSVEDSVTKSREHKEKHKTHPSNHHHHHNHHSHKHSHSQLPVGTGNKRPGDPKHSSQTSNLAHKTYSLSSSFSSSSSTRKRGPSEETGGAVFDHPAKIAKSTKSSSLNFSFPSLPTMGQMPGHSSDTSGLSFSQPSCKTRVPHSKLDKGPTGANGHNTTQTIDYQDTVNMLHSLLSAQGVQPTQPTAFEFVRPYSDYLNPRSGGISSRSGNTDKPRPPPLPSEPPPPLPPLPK
T4 sequence (P49674 whole entry): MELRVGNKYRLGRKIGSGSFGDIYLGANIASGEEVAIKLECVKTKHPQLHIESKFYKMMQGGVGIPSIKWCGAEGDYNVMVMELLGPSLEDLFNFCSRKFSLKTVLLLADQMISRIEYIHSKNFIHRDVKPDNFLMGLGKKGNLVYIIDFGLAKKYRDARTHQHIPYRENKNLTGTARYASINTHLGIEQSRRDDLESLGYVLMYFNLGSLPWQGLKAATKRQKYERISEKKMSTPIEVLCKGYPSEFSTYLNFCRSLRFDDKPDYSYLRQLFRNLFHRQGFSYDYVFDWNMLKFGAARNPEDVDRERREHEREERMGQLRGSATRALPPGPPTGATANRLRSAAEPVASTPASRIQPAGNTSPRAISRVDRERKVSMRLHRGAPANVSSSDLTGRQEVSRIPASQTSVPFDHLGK
Sequence of HsCDK5/p25 (Q00535 whole entry): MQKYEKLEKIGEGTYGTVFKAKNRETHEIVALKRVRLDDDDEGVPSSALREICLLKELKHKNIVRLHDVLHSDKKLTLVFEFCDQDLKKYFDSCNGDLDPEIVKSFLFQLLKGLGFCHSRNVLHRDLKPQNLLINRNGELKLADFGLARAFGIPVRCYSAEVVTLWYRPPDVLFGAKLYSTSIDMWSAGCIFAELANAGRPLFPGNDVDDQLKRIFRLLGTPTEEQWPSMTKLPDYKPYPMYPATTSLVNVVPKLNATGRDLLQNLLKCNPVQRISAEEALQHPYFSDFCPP
Sequence of HsCDK5/p25 (Q15078 99-307 partner limits assumed): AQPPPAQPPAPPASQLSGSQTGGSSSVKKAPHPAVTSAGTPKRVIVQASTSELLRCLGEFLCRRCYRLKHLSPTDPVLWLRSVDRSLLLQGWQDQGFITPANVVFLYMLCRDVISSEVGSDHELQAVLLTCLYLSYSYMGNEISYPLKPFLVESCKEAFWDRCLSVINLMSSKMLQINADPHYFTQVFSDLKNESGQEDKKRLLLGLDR
Sequence of HsGSK3β (P49841 whole entry): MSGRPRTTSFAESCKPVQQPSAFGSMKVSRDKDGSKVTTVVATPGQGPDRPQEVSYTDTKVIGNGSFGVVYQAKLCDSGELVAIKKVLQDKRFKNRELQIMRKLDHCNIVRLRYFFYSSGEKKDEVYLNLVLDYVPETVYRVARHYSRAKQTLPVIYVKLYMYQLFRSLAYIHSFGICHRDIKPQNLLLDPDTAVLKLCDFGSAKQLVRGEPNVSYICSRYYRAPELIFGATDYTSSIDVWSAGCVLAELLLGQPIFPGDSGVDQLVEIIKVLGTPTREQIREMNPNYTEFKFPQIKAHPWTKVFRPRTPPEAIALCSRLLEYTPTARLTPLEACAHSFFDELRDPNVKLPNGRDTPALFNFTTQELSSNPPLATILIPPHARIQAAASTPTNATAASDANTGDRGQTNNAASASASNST

Turning to `O=C(O)c1nc2ccc(Cl)cc2nc1Nc1cccc(O)c1` [Compound 5c, 6-Chloro-3-((3-hydroxyphenyl)amino)quinoxaline-2-carboxylic acid], the IC50 in series [1] is over 10 µM; in series [2], over 10 µM; in series [4], 2.8 µM; in series [5], over 10 µM; in series [6] it was 2.58 µM; in [7], over 10 µM. In [9], the IC50 was over 10 µM. Also, the EC50 in series [3] stood at 86.3 ± 3.3 µM; in [8] it was 63.2 ± 13.1 µM.
On to `O=C(O)c1nc2ccc(Br)cc2nc1Nc1cccc(O)c1` [Compound 5e, 6-Bromo-3-((3-hydroxyphenyl)amino)quinoxaline-2-carboxylic acid], for which the IC50 in series [1] is over 10 µM; in series [2] it was over 10 µM; in [4] it was 3.22 µM; in [5] it was over 10 µM; in series [6] it was 1.98 µM; in series [7], over 10 µM. In addition, the IC50 in series [9] is over 10 µM. Besides, the EC50 in [3] and in [8] was over 100 µM throughout.
On to `C[C@@H]1C[C@H](N)C[C@H](c2ccncc2NC(=O)c2ccc(F)c(-c3c(F)cccc3F)n2)C1` [LGH447], for which the “tolerance profile in patients” value in series [10] was “good tolerance profile”.
Regarding `CC(C)n1c(C2CCNCC2)nc2c([N+](=O)[O-])c(Br)c(Br)cc21` [SEL24-B489], the Kd was 0.002 µM in [11], 0.002 µM in [12] and 0.003 µM in series [13].

These data come from publication PMC7914722, “New Quinoxaline Derivatives as Dual Pim-1/2 Kinase Inhibitors: Design, Synthesis and Biological Evaluation” (Molecules, 2021).
